In patent US20230120564A1, “PYRIDO[3,4-D]PYRIMIDINE DERIVATIVE AND THERAPEUTIC PHARMACEUTIC COMPOSITION COMPRISING SAME” (KOREA INSTITUTE OF SCIENCE AND TECHNOLOGY, priority 2020, published 2023):

Tests used:
Test in all cases: full kinase panel biochemical assay
[1] = biological target: EPHB4 (Homo sapiens, UniProt P54760); details: single concentration of 1 μM; read-out: percent inhibition of EPHB4
Procedure: (§1) In order to measure the protein kinase inhibitory activity (% inhibition) of the compound of the present invention, biochemical assay was performed in the full kinase panel. As a test compound, Compound No. 4 was used. The percent inhibition of each kinase when treated with the test compound at a single concentration of 1 μM was measured, and the residual enzyme activity values (%) of the kinases were calculated. Kinases whose calculated residual enzyme activity values (%) was 30% or less (i.e., kinases inhibited by 70% or more) are as follows: ABL1, ABL2/ARG, ACK1, ARAF, BLK, BMX/ETK, BRAF, BRK, BTK, c-Kit, c-Src, CSK, DDR1, DDR2, EPHA1, EPHA2, EPHA3, EPHA4, EPHA5, EPHA6, EPHA7, EPHA8, EPHB1, EPHB2, EPHB3, EPHB4, ERBB2/HER2, ERBB4/HER4, FGFR1, FGFR2, FGFR3, FGR, FLT1/VEGFR1, FLT4/VEGFR3, FMS, FRK/PTK5, FYN, GCK/MAP4K2, HCK, HGK/MAP4K4, JAK1, JAK2, KDR/VEGFR2, KHS/MAP4K5, LCK, LYN, LYN B, MEKK1, MLK4, MYLK3, NEK5, P38a/MAPK14, P38b/MAPK11, PDGFRa, PDGFRb, PEAK1, RET, RIPK2, RIPK4, SIK2, SRPK1, TAOK3/JIK, TLK1, TNK1, TXK, TYK2, YES/YES1, YSK4/MAP3K19, and ZAK/MLTK.

[2] = biological target: HCK (Homo sapiens, UniProt P08631); details: single concentration of 1 μM; read-out: percent inhibition of HCK
Procedure: as §1

[3] = biological target: FGFR1 (Homo sapiens, UniProt P11362); details: single concentration of 1 μM; read-out: percent inhibition of FGFR1
Procedure: as §1

[4] = biological target: TXK (Homo sapiens, UniProt P42681); details: single concentration of 1 μM; read-out: percent inhibition of TXK
Procedure: as §1

[5] = biological target: EPHA3 (Homo sapiens, UniProt P29320); details: single concentration of 1 μM; read-out: percent inhibition of EPHA3
Procedure: as §1

[6] = biological target: RIPK2 (Homo sapiens, UniProt O43353); details: single concentration of 1 μM; read-out: percent inhibition of RIPK2
Procedure: as §1

[7] = biological target: EPHB1 (Homo sapiens, UniProt P54762); details: single concentration of 1 μM; read-out: percent inhibition of EPHB1
Procedure: as §1

[8] = biological target: BRAF (Homo sapiens, UniProt P15056); details: single concentration of 1 μM; read-out: percent inhibition of BRAF
Procedure: as §1

[9] = biological target: EPHB3 (Homo sapiens, UniProt P54753); details: single concentration of 1 μM; read-out: percent inhibition of EPHB3
Procedure: as §1

[10] = biological target: FLT4/VEGFR3 (Homo sapiens, UniProt P35916); details: single concentration of 1 μM; read-out: percent inhibition of FLT4/VEGFR3
Procedure: as §1

[11] = biological target: FGR (Homo sapiens, UniProt P09769); details: single concentration of 1 μM; read-out: percent inhibition of FGR
Procedure: as §1

[12] = biological target: SIK2 (Homo sapiens, UniProt Q9H0K1); details: single concentration of 1 μM; read-out: percent inhibition of SIK2
Procedure: as §1

[13] = biological target: BRK (Homo sapiens, UniProt Q13882); details: single concentration of 1 μM; read-out: percent inhibition of BRK
Procedure: as §1

[14] = biological target: ABL1 (Homo sapiens, UniProt P00519); details: single concentration of 1 μM; read-out: percent inhibition of ABL1
Procedure: as §1

[15] = biological target: TLK1 (Homo sapiens, UniProt Q9UKI8); details: single concentration of 1 μM; read-out: percent inhibition of TLK1
Procedure: as §1

[16] = biological target: c-Src (Homo sapiens, UniProt P12931); details: single concentration of 1 μM; read-out: percent inhibition of c-Src
Procedure: as §1

[17] = biological target: ABL2/ARG (Homo sapiens, UniProt P42684); details: single concentration of 1 μM; read-out: percent inhibition of ABL2/ARG
Procedure: as §1

[18] = biological target: YSK4/MAP3K19 (Homo sapiens, UniProt Q56UN5); details: single concentration of 1 μM; read-out: percent inhibition of YSK4/MAP3K19
Procedure: as §1

[19] = biological target: YES/YES1 (Homo sapiens, UniProt P07947); details: single concentration of 1 μM; read-out: percent inhibition of YES/YES1
Procedure: as §1

[20] = biological target: EPHA2 (Homo sapiens, UniProt P29317); details: single concentration of 1 μM; read-out: percent inhibition of EPHA2
Procedure: as §1

[21] = biological target: FYN (Homo sapiens, UniProt P06241); details: single concentration of 1 μM; read-out: percent inhibition of FYN
Procedure: as §1

[22] = biological target: MEKK1 (Homo sapiens, UniProt Q13233); details: single concentration of 1 μM; read-out: percent inhibition of MEKK1
Procedure: as §1

[23] = biological target: EPHA6 (Homo sapiens, UniProt Q9UF33); details: single concentration of 1 μM; read-out: percent inhibition of EPHA6
Procedure: as §1

[24] = biological target: JAK2 (Homo sapiens, UniProt O60674); details: single concentration of 1 μM; read-out: percent inhibition of JAK2
Procedure: as §1

Measured: inhibition at 1 µM

MEKK1, sequence (Q13233 whole entry): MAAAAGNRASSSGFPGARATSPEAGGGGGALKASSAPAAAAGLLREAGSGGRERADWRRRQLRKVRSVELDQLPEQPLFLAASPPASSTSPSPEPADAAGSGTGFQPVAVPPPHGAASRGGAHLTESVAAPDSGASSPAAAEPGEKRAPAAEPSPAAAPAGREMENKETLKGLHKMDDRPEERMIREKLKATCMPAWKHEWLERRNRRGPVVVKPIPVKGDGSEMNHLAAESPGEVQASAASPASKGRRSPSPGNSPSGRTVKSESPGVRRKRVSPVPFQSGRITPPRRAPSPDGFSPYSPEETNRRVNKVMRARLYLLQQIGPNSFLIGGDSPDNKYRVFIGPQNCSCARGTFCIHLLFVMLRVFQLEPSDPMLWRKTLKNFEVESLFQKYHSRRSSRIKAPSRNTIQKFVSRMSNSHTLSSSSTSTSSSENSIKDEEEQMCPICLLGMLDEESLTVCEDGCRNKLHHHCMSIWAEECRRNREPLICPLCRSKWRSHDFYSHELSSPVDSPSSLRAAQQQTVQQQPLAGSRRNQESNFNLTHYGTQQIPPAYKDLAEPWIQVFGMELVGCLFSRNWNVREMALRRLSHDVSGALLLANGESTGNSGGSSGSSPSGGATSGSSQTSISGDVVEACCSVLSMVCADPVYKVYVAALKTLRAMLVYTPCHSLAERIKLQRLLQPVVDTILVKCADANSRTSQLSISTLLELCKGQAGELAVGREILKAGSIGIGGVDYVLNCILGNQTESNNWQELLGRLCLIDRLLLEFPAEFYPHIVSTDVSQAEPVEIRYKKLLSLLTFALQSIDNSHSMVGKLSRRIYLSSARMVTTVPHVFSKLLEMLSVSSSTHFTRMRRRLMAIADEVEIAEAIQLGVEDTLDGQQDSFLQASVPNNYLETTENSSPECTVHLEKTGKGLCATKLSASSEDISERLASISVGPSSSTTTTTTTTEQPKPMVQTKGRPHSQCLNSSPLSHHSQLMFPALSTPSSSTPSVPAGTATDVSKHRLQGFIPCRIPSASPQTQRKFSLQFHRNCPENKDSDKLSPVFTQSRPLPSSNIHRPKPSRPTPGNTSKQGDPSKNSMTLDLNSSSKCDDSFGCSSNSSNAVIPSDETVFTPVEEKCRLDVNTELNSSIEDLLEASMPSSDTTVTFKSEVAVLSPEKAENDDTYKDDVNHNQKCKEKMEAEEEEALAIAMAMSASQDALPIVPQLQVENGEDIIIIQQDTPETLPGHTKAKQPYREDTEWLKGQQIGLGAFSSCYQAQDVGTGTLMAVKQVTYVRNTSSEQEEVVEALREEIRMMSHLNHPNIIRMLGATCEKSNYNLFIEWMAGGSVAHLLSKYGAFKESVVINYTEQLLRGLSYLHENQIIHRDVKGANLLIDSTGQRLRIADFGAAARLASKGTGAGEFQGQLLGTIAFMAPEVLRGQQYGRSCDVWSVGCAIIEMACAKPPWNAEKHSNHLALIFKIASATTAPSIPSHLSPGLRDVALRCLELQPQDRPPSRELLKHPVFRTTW
JAK2, sequence (O60674 whole entry): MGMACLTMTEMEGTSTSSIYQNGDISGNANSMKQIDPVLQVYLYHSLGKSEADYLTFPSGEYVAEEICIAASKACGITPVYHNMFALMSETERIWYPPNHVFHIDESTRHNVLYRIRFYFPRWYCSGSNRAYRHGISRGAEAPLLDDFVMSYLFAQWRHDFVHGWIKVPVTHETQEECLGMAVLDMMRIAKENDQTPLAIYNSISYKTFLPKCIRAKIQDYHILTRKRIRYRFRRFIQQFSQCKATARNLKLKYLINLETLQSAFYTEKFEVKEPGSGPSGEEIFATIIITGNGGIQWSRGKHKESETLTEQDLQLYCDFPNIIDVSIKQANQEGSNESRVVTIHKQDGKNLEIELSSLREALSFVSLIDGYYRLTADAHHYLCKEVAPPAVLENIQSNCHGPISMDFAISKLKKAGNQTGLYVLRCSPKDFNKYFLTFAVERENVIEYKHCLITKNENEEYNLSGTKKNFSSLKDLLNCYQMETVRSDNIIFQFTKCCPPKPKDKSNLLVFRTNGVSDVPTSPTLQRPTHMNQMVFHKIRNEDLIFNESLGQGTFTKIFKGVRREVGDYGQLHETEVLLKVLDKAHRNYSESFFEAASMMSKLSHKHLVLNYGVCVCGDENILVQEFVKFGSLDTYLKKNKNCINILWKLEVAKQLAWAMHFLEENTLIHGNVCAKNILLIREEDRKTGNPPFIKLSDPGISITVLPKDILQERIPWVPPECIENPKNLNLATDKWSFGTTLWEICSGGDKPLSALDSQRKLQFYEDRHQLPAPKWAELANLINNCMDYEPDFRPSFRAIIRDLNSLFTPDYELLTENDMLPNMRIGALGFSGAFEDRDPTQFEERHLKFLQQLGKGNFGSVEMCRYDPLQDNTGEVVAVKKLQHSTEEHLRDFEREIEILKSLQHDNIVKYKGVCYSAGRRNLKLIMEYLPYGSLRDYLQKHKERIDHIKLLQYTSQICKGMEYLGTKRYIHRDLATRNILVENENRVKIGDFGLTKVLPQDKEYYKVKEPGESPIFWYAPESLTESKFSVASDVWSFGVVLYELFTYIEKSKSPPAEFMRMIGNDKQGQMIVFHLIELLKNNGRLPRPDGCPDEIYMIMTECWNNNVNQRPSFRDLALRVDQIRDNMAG
FLT4/VEGFR3, sequence (P35916 25-1363): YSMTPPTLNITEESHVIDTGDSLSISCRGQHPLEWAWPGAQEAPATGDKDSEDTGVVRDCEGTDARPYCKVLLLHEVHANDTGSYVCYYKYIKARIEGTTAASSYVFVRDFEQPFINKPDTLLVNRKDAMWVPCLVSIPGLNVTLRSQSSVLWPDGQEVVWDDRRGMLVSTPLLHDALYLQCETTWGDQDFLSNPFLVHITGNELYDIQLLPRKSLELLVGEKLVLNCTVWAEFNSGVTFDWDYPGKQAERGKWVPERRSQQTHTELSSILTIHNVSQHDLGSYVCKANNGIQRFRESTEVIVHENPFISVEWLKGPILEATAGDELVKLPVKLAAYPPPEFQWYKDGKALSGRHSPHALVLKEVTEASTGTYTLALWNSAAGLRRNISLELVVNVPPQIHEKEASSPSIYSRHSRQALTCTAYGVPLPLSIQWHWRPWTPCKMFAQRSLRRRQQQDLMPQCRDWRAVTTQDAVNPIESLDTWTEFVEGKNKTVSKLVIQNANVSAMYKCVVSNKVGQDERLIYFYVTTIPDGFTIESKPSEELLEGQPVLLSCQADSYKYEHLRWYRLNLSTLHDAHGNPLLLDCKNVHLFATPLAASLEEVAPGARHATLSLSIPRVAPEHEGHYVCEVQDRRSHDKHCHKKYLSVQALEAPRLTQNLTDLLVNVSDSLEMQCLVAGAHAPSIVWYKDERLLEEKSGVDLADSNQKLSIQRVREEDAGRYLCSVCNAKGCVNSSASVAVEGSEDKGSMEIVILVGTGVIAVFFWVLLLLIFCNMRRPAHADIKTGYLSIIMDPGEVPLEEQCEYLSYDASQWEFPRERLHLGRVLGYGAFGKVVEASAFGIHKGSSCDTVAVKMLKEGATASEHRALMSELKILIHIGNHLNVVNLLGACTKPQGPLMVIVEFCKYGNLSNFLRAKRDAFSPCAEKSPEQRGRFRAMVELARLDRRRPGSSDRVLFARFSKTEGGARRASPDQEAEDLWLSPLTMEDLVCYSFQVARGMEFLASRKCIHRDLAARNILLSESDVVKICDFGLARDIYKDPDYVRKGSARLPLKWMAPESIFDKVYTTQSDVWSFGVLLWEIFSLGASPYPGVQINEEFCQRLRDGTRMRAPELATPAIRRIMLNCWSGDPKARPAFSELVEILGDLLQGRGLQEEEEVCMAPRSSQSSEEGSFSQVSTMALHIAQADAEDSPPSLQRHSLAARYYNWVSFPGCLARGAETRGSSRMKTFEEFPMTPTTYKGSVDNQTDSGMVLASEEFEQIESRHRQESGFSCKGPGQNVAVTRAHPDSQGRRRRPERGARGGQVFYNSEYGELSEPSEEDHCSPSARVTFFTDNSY
RIPK2, sequence (O43353 whole entry): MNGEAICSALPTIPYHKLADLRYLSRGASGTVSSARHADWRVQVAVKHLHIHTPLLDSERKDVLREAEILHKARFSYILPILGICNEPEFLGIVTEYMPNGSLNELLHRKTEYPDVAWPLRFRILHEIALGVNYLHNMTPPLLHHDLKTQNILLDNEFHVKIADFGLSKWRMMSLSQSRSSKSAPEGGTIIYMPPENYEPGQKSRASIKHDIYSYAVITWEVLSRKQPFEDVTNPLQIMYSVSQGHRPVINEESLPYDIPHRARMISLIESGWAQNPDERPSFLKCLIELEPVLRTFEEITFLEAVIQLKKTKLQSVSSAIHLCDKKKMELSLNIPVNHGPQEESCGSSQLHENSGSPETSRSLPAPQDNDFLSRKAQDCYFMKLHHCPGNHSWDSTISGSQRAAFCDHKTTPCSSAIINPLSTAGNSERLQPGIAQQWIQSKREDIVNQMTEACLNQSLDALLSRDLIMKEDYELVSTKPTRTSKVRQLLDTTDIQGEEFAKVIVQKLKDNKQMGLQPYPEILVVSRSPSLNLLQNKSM
FGR, sequence (P09769 whole entry): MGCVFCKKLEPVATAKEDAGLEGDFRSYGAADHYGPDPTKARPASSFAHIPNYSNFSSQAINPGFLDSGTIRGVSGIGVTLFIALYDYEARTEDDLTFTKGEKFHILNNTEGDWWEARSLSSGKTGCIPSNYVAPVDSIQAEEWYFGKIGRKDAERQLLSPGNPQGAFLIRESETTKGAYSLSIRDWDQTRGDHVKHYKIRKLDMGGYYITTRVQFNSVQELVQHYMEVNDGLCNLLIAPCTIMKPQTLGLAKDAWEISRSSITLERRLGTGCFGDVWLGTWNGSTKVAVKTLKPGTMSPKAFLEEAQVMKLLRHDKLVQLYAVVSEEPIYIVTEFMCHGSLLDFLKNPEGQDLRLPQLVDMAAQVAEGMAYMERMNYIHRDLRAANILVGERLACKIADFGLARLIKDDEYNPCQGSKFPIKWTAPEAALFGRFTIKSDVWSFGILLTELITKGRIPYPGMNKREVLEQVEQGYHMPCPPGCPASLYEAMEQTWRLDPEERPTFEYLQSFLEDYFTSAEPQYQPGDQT

Cc1ccc(Nc2ncc3cc(-c4cc(NC(=O)c5cccc(C(F)(F)F)c5)ccc4C)ncc3n2)cn1 [Compound No. 4, N-(4-methyl-3-(2-((6-methylpyridin-3-yl)amino)pyrido[3,4-d]pyrimidin-6-yl)phenyl)-3-(trifluoromethyl)benzamide]
≥ 70%: all assays above
